Assay results from US20070269832A1, “Novel affinity labels” (priority 2001, published 2007).
Peptide text beside a SMILES is read from it. * marks the point of attachment. Cbz = O=C(OCc1ccccc1)*; CH2F = FC*

Tests used:
Assay type in all cases: cell-based, Human
[1] = test system: HL-60 cells; experiment: Pretreatment of HL-60 cells with unlabeled protease inhibitors during CPT induction of apoptosis, then binding of FAM-VAD-FMK, FFCK or FLCK measured by LSC; settings: HL-60, CPT 3 h in presence of the unlabeled inhibitor; mean (SE) of three experiments
Protocol: Unlabeled (cold) N-tosyl-phenylalanylchloromethyl ketone (TPCK) and N-tosyl-lysylchloromethyl keytone (TLCK) were obtained from Sigma Chemical Co.; concentrated solutions at 10 mM were freshly prepared in DMSO. Further dilutions were made in tissue culture media.
The non-fluorescent poly-caspase inhibitor Z-VAD-FMK was obtained from Enzyme Systems Products. A 20 mM stock solution of Z-VAD-FMK was made in DMSO (Sigma) and the inhibitor was then diluted in culture media to obtain the final 50 μM concentration in the cultures.
(§1) Cells: Human promyelocytic leukemic HL-60 cells were obtained from American Type Culture Collection (ATCC; Rockville, Md.). […]
Cell staining and fluorescence measurement by LSC: The HL-60 cells from the untreated or CPT treated cultures were centrifuged (200 g, 5 min) and resuspended in PBS at approximately 10^4 cells per 5 ml volume. […] The slides were placed on the motorized stage of a laser scanning microscope (LSC; Kamentsky, L. A., Methods Cell Biol, 2001, 63:51-87; Darzynkiewicz et al., Exp Cell Res, 1999, 249:1-12) for fluorescence measurement. Cell fluorescence was then measured using a 488 nm excitation laser line and recording integral and maximal pixel intensities of green FFCK or FLCK. FLICA staining was measured under the same conditions as FLISP staining. Fluorescence can also be measured by flow cytometer and fluorescence microscopy. […]

[2] = test system: HL-60 cells; experiment: Dual labeling of CPT-treated HL-60 cells with SR-VAD-FMK and FFCK or FLCK (fluorescence microscopy / LSC); settings: CPT-treated HL-60, dual labeling
Protocol: Cell staining and fluorescence measurement by LSC: The HL-60 cells from the untreated or CPT treated cultures were centrifuged (200 g, 5 min) and resuspended in PBS at approximately 10^4 cells per 5 ml volume. Cells were then attached electrostatically to microscope slides as described before (Bedner et al., Exp Cell Res., 2000, 259:308-313; Smolewski et al., Cytometry, 2001, 44:73-82). Briefly, the attachment was achieved by the incubation (15 min) of cells suspended in serum-free PBS in shallow (<1 mm depth; 1.5×1.5 cm) wells on horizontally placed microscope slides that were rinsed in 100% ethanol and air dried prior to use, at 100% humidity. The electrostatically attached cells remain viable, exclude such dyes as trypan blue and propidium iodide (PI), and have unchanged morphology for several hours (Bedner et al., Exp Cell Res., 2000, 259:308-313). After the cells became attached, PBS was removed from the wells and was replaced by 150 μL of the culture medium containing 10% FCS. FLISP staining solutions were prepared by diluting 5 μL of the 10 mM FFCK or FLCK stock solution into 5 mL of culture medium yielding a final FLISP concentration 10 μM. The medium from above the cells on the slide was then replaced with 150 μL of this staining solution. A polyethylene foil (2.5×2.5 cm) was positioned over the staining solution to prevent drying. The slides were subsequently incubated for 1 h at 37° C. in a closed box with wet tissue to additionally prevent drying. […] The slides were placed on the motorized stage of a laser scanning microscope (LSC; Kamentsky, L. A., Methods Cell Biol, 2001, 63:51-87; Darzynkiewicz et al., Exp Cell Res, 1999, 249:1-12) for fluorescence measurement. Cell fluorescence was then measured using a 488 nm excitation laser line and recording integral and maximal pixel intensities of green FFCK or FLCK. FLICA staining was measured under the same conditions as FLISP staining. Fluorescence can also be measured by flow cytometer and fluorescence microscopy. […]

[3] = test system: HL-60 cells; experiment: Labeling of untreated and CPT-treated HL-60 cells with FLISP (FFCK, FLCK) or FLICA reagents, fluorescence measured by LSC; settings: for binding of the ligand by cells treated with CPT vs untreated cells (in words): HL-60, 3 h CPT, combined with PI
Protocol: Preparation of Reagents: Fluorescent Inhibitors of Serine Proteases (FLISP) reagents, 5(6)-Carboxyfluoresceinyl-L-phenylalanylchloromethyl ketone (FFCK) and 5(6)-carboxyfluoresceinyl-L-leucylchloromethyl ketone (FLCK) were dissolved initially in dimethyl sulfoxide (DMSO; Sigma) to yield a 10 mM concentration. Aliquots were made from this stock solution and stored frozen at −20° C. protected from light. This reagent stock was then diluted directly into the cell culture media to give a 1× working reagent concentration of 10 μM. Dilution of the reagent into aqueous (cell culture) media is done just prior to cell exposure to preserve the labile chloromethyl ketone reactivity of FLISP reagent.
Fluorescent inhibitors of caspases (FLICA) reagents, namely the fluorescein labeled VAD-FMK (FAM-VAD-FMK) and sulforhodamine labeled VAD-FMK (SR-VAD-FMK) (Immunochemistry Technologies; Bloomington, Minn.) were both designed to detect the presence of active caspases within apoptotic cells. These inhibitors were dissolved in DMSO to obtain a 150× concentrated stock solution. Aliquots of these solutions were stored at −20 °C in the dark. Prior to use, a 30× working solution of either FAM-VAD-FMK or SR-VAD-FMK was prepared by diluting the stock solution 1:5 in phosphate buffered saline (PBS) and mixing until the solution become clear. The 30× working solution was diluted 1:30 cell culture media to give a final 1× working reagent concentration of 10 μM.
as §1
Cell staining and fluorescence measurement by LSC: The HL-60 cells from the untreated or CPT treated cultures were centrifuged (200 g, 5 min) and resuspended in PBS at approximately 10^4 cells per 5 ml volume. […]

Molecule	percent decrease in frequency of FAM-VAD-FMK labeled cells (caspase activation) vs CPT without unlabeled inhibitor [1] [%]	fluorescence of labeled cells (intensity and distribution, in words) [2]	binding of the ligand by cells treated with CPT vs untreated cells (in words) [3]	fluorescence intensity of FLCK labeled cells, greater compared to FFCK labeled cells ([3]; identical settings of the photomultiplier sensitivity)
COC(=O)C[C@H](NC(=O)[C@H](C)NC(=O)[C@@H](NC(=O)OCc1ccccc1)C(C)C)C(=O)CF [Z-VAD-FMK] (Cbz-Val-Ala-Asp(OMe)-CH2F)	95.0	–	–	–
5(6)-Carboxyfluoresceinyl-L-phenylalanylchloromethyl ketone [FFCK]	–	strong	induced binding	–
Sulforhodaminyl-L-valylalanylaspartylflyoromethyl ketone [SR-VAD-FMK, reference compound]	–	uniformly dispersed	–	–
5(6)-carboxyfluoresceinyl-L-leucylchloromethyl ketone [FLCK]	–	faint and more uniformly distributed	induced binding	approximately 60%
